This is an account of results in article PMC6151508, “Development of Novel Nrf2/ARE Inducers Bearing Pyrazino[2,1-a]isoquinolin Scaffold with Potent In Vitro Efficacy and Enhanced Physicochemical Properties” (Molecules : A Journal of Synthetic Chemistry and Natural …, 2017).

Structures can show the parent of a compound that is named as a salt. Where only a bound is given, the exact number is not on record here.

For data set [1], the system named is antioxidant response element (ARE). In words: ARE luciferase reporter assay in HepG2-ARE-C8 cells. It counts as cell-based. As to conditions: HepG2-ARE-C8, 12 h of treatment, mean ± SD n = 3, read-out: ARE Inductivity in Luciferase Reporter Assay (induction fold). The protocol:
(§1) All the derivatives were evaluated for their ability to induce ARE in HepG2-ARE-C8 cell (HepG2 cells stably transfected with a luciferase reporter) by ARE luciferase reporter assay, and they were compared to the lead compound 2. At the same time, cytotoxicity studies were performed by the MTT assay against the HCT116 cells. The results of cytotoxic activity in vitro were expressed as the IC50 [18]. Because those compounds were designed for chemoprevention, they should not be cytotoxic.
HepG2-ARE-C8 cells (4 × 10^4 cells/well) were incubated overnight in 96-well plates, and then treated with different concentrations of test compounds. tBHQ was used as a positive control, DMSO was used as a negative control, and the luciferase cell culture lysis reagent was used as a blank. The medium was removed after 12 h treatment. Then, the cells were harvested in the luciferase cell culture lysis reagent together with 100 μL of cold PBS. Then, centrifuging the solution and 20 μL of the supernatant was used for determining the luciferase activity. The luciferase activity was measured by a Luminoskan Ascent (Thermo Scientific, Waltham, MA, USA). The data were obtained in triplicate and expressed as fold induction over the control. Induction fold = (RLUtest − RLUblank)/(RLUDMSOcontrol − RLUblank). RLU = relative light unit l.

Data set [2] is described as follows: MTT cell viability (cytotoxicity) assay. The data set is classed as cell-based. Particulars: human, HCT116 cells. The procedure:
as §1
Cell viabilities were determined by using 3-[4,5-dimethylthiazol-2-yl]-2,5-diphenyltetrazolium bromide (MTT) assay. MTT was dissolved in (phosphate buffered solution) PBS to a concentration of 5 mg/mL. HCT116 cells (8 × 10^3 cells/well) were plated in 96-well plates and incubated overnight. Different concentrations of test compounds were added to each cell for 24 h at 37 °C, and the 20 μL MTT solution was added and incubated for an additional 4 h. Then, 100 μL of DMSO was added to dissolve formazan precipitate after the solution was removed. The OD value was determined at 570 nm by Elx800 absorbance microplate reader (BioTek, Winooski, VT, USA). IC50 value (concentration at which cell survival equals 50% of control) = […].

`Nc1cccc(C(=O)C=C2NCC3c4ccccc4CCN3C2=O)c1` (centres unmarked) [Compound 1a, 3-(2-(3-aminophenyl)-2-oxoethylidene)-1,2,3,6,7,11b-hexahydro-4H-pyrazino[2,1-a]isoquinolin-4-one] displayed a melting point of 206 to 208 °C. In addition, in data set [1], the fold induction at 0.1 µM was determined as 0.56 ± 0.28, the fold induction at 1 µM was 1.66 ± 0.05, the fold induction at 5 µM was 2.4 ± 1.18 and the fold induction at 10 µM turned out to be 5.64 ± 2.06. Also, in data set [1], the fold induction at 50 µM was 7.53 ± 1.28 and the fold induction at 100 µM was 7.62 ± 2.79. In data set [2], this compound yielded a half-maximal inhibitory concentration (IC50) at 24 h of over 300 µM.
Compound `Nc1ccc(C(=O)C=C2NCC3c4ccccc4CCN3C2=O)cc1` (centres unmarked) [Compound 1b, 3-(2-(4-aminophenyl)-2-oxoethylidene)-1,2,3,6,7,11b-hexahydro-4H-pyrazino[2,1-a]isoquinolin-4-one] showed a melting point of 238 to 240 °C. In addition, in data set [1], the fold induction at 0.1 µM is 1.26 ± 0.28, the fold induction at 1 µM worked out at 1.26 ± 0.73, the fold induction at 5 µM is 2.78 ± 0.29 and the fold induction at 10 µM came to 3.45 ± 0.03. Also, in data set [1], the fold induction at 50 µM stood at 2.75 ± 0.68 and the fold induction at 100 µM was 2.68 ± 0.31. Also, the 50% inhibitory concentration (IC50) at 24 h in data set [2] was over 300 µM.
Compound `CC(=O)Nc1cccc(C(=O)C=C2NCC3c4ccccc4CCN3C2=O)c1` (centres unmarked) [Compound 1c, N-(3-(2-(4-oxo-1,6,7,11b-tetrahydro-2H-pyrazino[2,1-a]isoquinolin-3(4H)-ylidene)acetyl)phenyl)acetamide] yielded a melting point of 247 to 249 °C. In data set [1], the fold induction at 0.1 µM is 0.8 ± 0.19, the fold induction at 1 µM amounted to 0.78 ± 0.36, the fold induction at 5 µM came to 2.3 ± 0.39 and the fold induction at 10 µM is 3.05 ± 0.53. Further, in data set [1], the fold induction at 50 µM worked out at 3.09 ± 0.09 and the fold induction at 100 µM came out at 3.41 ± 0.65. For the same compound, the IC50 at 24 h in data set [2] is over 300 µM.
`CC(=O)Nc1ccc(C(=O)C=C2NCC3c4ccccc4CCN3C2=O)cc1` (centres unmarked) [Compound 1d, N-(4-(2-(4-oxo-1,6,7,11b-tetrahydro-2H-pyrazino[2,1-a]isoquinolin-3(4H)-ylidene)acetyl)phenyl)acetamide] came in with a melting point of 279 to 281 °C. Besides, in data set [1], the fold induction at 0.1 µM is 1.24 ± 0.23, the fold induction at 1 µM was 1.09 ± 0.72, the fold induction at 5 µM is 1.49 ± 0.16 and the fold induction at 10 µM was found to be 2.94 ± 1.9. In data set [1], the fold induction at 50 µM is 7.14 ± 0.34 and the fold induction at 100 µM is 10.07 ± 0.05. For the same compound, the half-inhibitory concentration (IC50) at 24 h in data set [2] is over 300 µM.
`CCCC(=O)C=C1NCC2c3ccccc3CCN2C1=O` (centres unmarked) [Compound 2a, 3-(2-oxopentylidene)-1,2,3,6,7,11b-hexahydro-4H-pyrazino[2,1-a]isoquinolin-4-one]: the melting point was 158 to 160 °C. In data set [1], the fold induction at 0.1 µM was 2.38 ± 0.11, the fold induction at 1 µM was determined as 2.28 ± 0.78, the fold induction at 5 µM turned out to be 2.55 ± 0.31 and the fold induction at 10 µM amounted to 3.09 ± 1.09. Besides, in data set [1], the fold induction at 50 µM is 6.74 ± 0.67 and the fold induction at 100 µM amounted to 19.6 ± 0.47. Also, in data set [2], the concentration for half-maximal inhibition (IC50) at 24 h is over 300 µM.
As for `O=C(C=C1NCC2c3ccccc3CCN2C1=O)C1CC1` (centres unmarked) [Compound 2b, 3-(2-cyclopropyl-2-oxoethylidene)-1,2,3,6,7,11b-hexahydro-4H-pyrazino[2,1-a]isoquinolin-4-one], the melting point was in the range of 173 to 175 °C. Further, in data set [1], the fold induction at 0.1 µM was found to be 3.71 ± 1.41, the fold induction at 1 µM was determined as 3.57 ± 1.08, the fold induction at 5 µM worked out at 4.85 ± 0.82 and the fold induction at 10 µM turned out to be 6.58 ± 2. Besides, in data set [1], the fold induction at 50 µM stood at 8.24 ± 0.62 and the fold induction at 100 µM amounted to 12.9 ± 1.73. Moreover, the IC50 at 24 h in data set [2] is over 300 µM.
`O=C(C=C1NCC2c3ccccc3CCN2C1=O)C1CCCC1` (centres unmarked) [Compound 2d, 3-(2-cyclopentyl-2-oxoethylidene)-1,2,3,6,7,11b-hexahydro-4H-pyrazino[2,1-a]isoquinolin-4-one] registered a melting point of 185 to 187 °C. Moreover, in data set [1], the fold induction at 0.1 µM is 1.06 ± 0.09, the fold induction at 1 µM was 3.19 ± 0.52, the fold induction at 5 µM amounted to 4.06 ± 0.3 and the fold induction at 10 µM was 7.38 ± 0.31. Besides, in data set [1], the fold induction at 50 µM is 5.22 ± 1.28 and the fold induction at 100 µM amounted to 5.83 ± 0.38. Further, half-maximal inhibition in data set [2] (IC50 at 24 h) required 161 µM.
On to `O=C(C=C1NCC2c3ccccc3CCN2C1=O)C1CCCCC1` (centres unmarked) [Compound 2e, 3-(2-cyclohexyl-2-oxoethylidene)-1,2,3,6,7,11b-hexahydro-4H-pyrazino[2,1-a]isoquinolin-4-one], for which the melting point was in the range of 203 to 205 °C. Also, in data set [1], the fold induction at 0.1 µM is 1.92 ± 0.82, the fold induction at 1 µM was found to be 2.17 ± 1.05, the fold induction at 5 µM stood at 3.03 ± 0.68 and the fold induction at 10 µM was 3.49 ± 0.64. In addition, in data set [1], the fold induction at 50 µM worked out at 3.92 ± 0.53 and the fold induction at 100 µM stood at 8.31 ± 0.25. This compound returned an IC50 at 24 h in data set [2] of over 300 µM.
With `O=C(C=C1NCC2c3ccccc3CCN2C1=O)C1=CCCCC1` (centres unmarked) [Compound 2f, 3-(2-(cyclohex-1-en-1-yl)-2-oxoethylidene)-1,2,3,6,7,11b-hexahydro-4H-pyrazino[2,1-a]isoquinolin-4-one], the melting point fell in the range of 180 to 182 °C. For the same compound, in data set [1], the fold induction at 0.1 µM is 3.27 ± 1.59, the fold induction at 1 µM was found to be 2.1 ± 0.59, the fold induction at 5 µM worked out at 5.46 ± 1.83 and the fold induction at 10 µM is 8.45 ± 1.05. In data set [1], the fold induction at 50 µM is 3.34 ± 1.05 and the fold induction at 100 µM stood at 3.07 ± 0.43. The IC50 at 24 h in data set [2] is 171 µM.
In the case of `O=C(C=C1NCC2c3ccccc3CCN2C1=O)c1c[nH]c2ccccc12` (centres unmarked) [Compound 2g, 3-(2-(1H-indol-3-yl)-2-oxoethylidene)-1,2,3,6,7,11b-hexahydro-4H-pyrazino[2,1-a]isoquinolin-4-one], the melting point is 270 to 272 °C. Further, in data set [1], the fold induction at 0.1 µM was determined as 1.27 ± 0.52, the fold induction at 1 µM came to 2.31 ± 0.24, the fold induction at 5 µM amounted to 4.68 ± 0.29 and the fold induction at 10 µM stood at 5.84 ± 0.07. In data set [1], the fold induction at 50 µM was 14.5 ± 0.36 and the fold induction at 100 µM stood at 9.69 ± 0.8. The same compound yielded an IC50 at 24 h in data set [2] of over 300 µM.
The compound `O=C(C=C1NCC2c3ccccc3CCN2C1=O)c1cnc2ccccc2c1` (centres unmarked) [Compound 2h, 3-(2-oxo-2-(quinolin-3-yl)ethylidene)-1,2,3,6,7,11b-hexahydro-4H-pyrazino[2,1-a]isoquinolin-4-one] gave a melting point of 245 to 247 °C. For the same compound, in data set [1], the fold induction at 0.1 µM is 2.06 ± 0.98, the fold induction at 1 µM stood at 3.4 ± 0.02, the fold induction at 5 µM stood at 3.62 ± 0.29 and the fold induction at 10 µM came out at 4.59 ± 0.14. Moreover, in data set [1], the fold induction at 50 µM came out at 4.38 ± 1.94 and the fold induction at 100 µM amounted to 4.98 ± 0.53. The same compound displayed an IC50 at 24 h in data set [2] of 92.4 µM.
`O=C(C=C1NCC2c3ccccc3CCN2C1=O)c1ccc(N2CCOCC2)cc1` (centres unmarked) [Compound 2i, 3-(2-(4-morpholinophenyl)-2-oxoethylidene)-1,2,3,6,7,11b-hexahydro-4H-pyrazino[2,1-a]isoquinolin-4-one] had a melting point of 235 to 237 °C. In data set [1], the fold induction at 0.1 µM turned out to be 1.71 ± 0.71, the fold induction at 1 µM worked out at 1.88 ± 1.36, the fold induction at 5 µM worked out at 1.37 ± 0.19 and the fold induction at 10 µM turned out to be 1.66 ± 0.53. Further, in data set [1], the fold induction at 50 µM stood at 1.16 ± 0.63 and the fold induction at 100 µM turned out to be 1.42 ± 0.31. In data set [2], this compound gave an IC50 at 24 h of 237 µM.
`O=C(C=C1NCC2CCCCN2C1=O)c1cccc(Cl)c1` (centres unmarked) [Compound 3c, 3-(2-(3-chlorophenyl)-2-oxoethylidene)octahydro-4H-pyrido[1,2-a]pyrazin-4-one]: the melting point lay in the range of 157 to 159 °C. Besides, in data set [1], the fold induction at 0.1 µM came out at 1.85 ± 0.21, the fold induction at 1 µM amounted to 8.41 ± 0.04, the fold induction at 5 µM came to 10.2 ± 3.44 and the fold induction at 10 µM amounted to 11.4 ± 1.12. Moreover, in data set [1], the fold induction at 50 µM turned out to be 1.13 ± 1.03 and the fold induction at 100 µM worked out at 1.33 ± 0.19. Further, the midpoint of inhibition in data set [2], the IC50 at 24 h, lay at 174 µM.
Turning to `COC(=O)/C=C/C(=O)OC` [DMF, Dimethyl fumarate, reference compound], in data set [1], the fold induction at 0.1 µM came to 1.04 ± 0.21, the fold induction at 1 µM came to 1.1 ± 0.11, the fold induction at 5 µM was 1.4 ± 0.21 and the fold induction at 10 µM was determined as 2.06 ± 0.25. In data set [1], the fold induction at 50 µM came to 3.34 ± 0.52 and the fold induction at 100 µM came out at 5.31 ± 0.24.
